Columns and labels:
[1] = intranasally at 1.0 to 1.3 mg/kg in rats; cited from earlier work
[2] = oral administration; cited from earlier work
[3] = Twelve months storage, THC degradation to Cannabinol by gas chromatography; conditions: twelve months storage at −10 °C in darkness, 5 ml screw top bottles
From the text: Extract was concentrated by vacuum evaporation and percent of THC degradation quantitated by gas chromatograpy.

Question: Which results are given for `CCCCCc1cc(O)c2c(c1)OC(C)(C)[C@@H]1CCC(C)=C[C@@H]21` [THC, Delta-9-tetrahydrocannabinol]?
Answer: analgesic response, time post administration [1]: 15 min; duration of analgesic response [1]: 120 min; oral dose reaching the circulation unchanged [2]: 10%; percent degraded to Cannabinol [3]: 22.6%

Reference: patent US20180000727A1, “COMPOSITION AND METHODS TO IMPROVE STABILITY, DOSING, PHARMA[…] PRODUCT SHELF LIFE OF ENDOCANNABINOIDS, PHYTOCANNABINOIDS AND […] CA[…] BY NASAL INHAER” (priority 2015, published 2018)
